Measured values taken from DBAASP.
≈ marks a conversion by molar mass, not a printed value. Where “and” joins values, the source holds several entries; their conditions need not be identical. Equal values may be shown once.

Key:
Experiment in all cases: ≥ marks a high value that may be exact or a test limit, other limits are often not marked, values filed in µg/mL are converted to µM
[1] = system: Batrachochytrium dendrobatidis JEL-197
[2] = system: Candida albicans ATCC 90028
[3] = system: Enterobacter cloacae NHTCC 53001
[4] = system: Escherichia coli ATCC 25922
[5] = system: Klebsiella pneumoniae KK3 9904
[6] = system: Pseudomonas aeruginosa ATCC 27853
[7] = system: Staphylococcus aureus NCTC 8325
[8] = system: Candida albicans ATCC 10231
[9] = system: Enterococcus faecalis NCTC 12697
[10] = system: Escherichia coli ATCC BAA-2340
[11] = system: Klebsiella pneumoniae ATCC 43816
[12] = system: Klebsiella pneumoniae ATCC BAA-1705
[13] = system: Pseudomonas aeruginosa ATCC 9027
[14] = system: Staphylococcus aureus ATCC 12493
[15] = system: Staphylococcus aureus ATCC 43300
[16] = system: Staphylococcus aureus ATCC 6538
[17] = system: Staphylococcus aureus B038 V1S1A
[18] = system: Staphylococcus aureus
[19] = system: Aeromonas salmonicida CIP 103209T
[20] = system: Bacillus megaterium CIP 51.17
[21] = system: Enterococcus faecalis CIP 76.117
[22] = system: Escherichia coli CIP 54.8
[23] = system: Klebsiella pneumoniae CIP 52.145
[24] = system: Listeria monocytogenes LME, Caen
[25] = system: Pseudomonas aeruginosa CIP A22
[26] = system: Salmonella typhimurium LME, Caen
[27] = system: Staphylococcus aureus CIP 53.156
[28] = system: Vibrio aestuarianus CIP 109791T
[29] = system: Vibrio aestuarianus IFREMER
[30] = system: Vibrio alginolyticus IFREMER
[31] = system: Vibrio splendidus IFREMER
[32] = system: Vibrio splendidus LGP-32
[33] = system: Vibrio splendidus SATMAR
[34] = system: Vibrio vulnificus CIP 109783
[35] = system: Aeromonas salmonicida NCIMB 1102
[36] = system: Bacillus subtilis IAM 1026
[37] = system: Escherichia coli JCM 1649
[38] = system: Photobacterium damselae subsp. piscicida Sp 9587
[39] = system: Salmonella typhimurium
[40] = system: Shewanella putrefaciens IAM 1509
[41] = system: Staphylococcus aureus IAM 1011
[42] = system: Vibrio anguillarum NCIMB 829
[43] = system: Vibrio parahaemolyticus Vp+1

`CC[C@H](C)[C@H](NC(=O)CN)C(=O)N[C@@H](CC(C)C)C(=O)N[C@@H](CC(=O)O)C(=O)N[C@@H](CO)C(=O)N[C@@H](Cc1ccccc1)C(=O)N[C@@H](CCCCN)C(=O)N[C@@H](CC(=O)O)C(=O)N[C@H](C(=O)N[C@@H](C)C(=O)N[C@@H](CCCCN)C(=O)NCC(=O)N[C@H](C(=O)N[C@@H](C)C(=O)N[C@H](C(=O)N[C@@H](Cc1cnc[nH]1)C(=O)N[C@@H](CC(C)C)C(=O)N[C@@H](CC(C)C)C(=O)N[C@@H](CC(N)=O)C(=O)N[C@@H](CCSC)C(=O)N[C@@H](C)C(=O)N[C@@H](CCCCN)C(=O)N[C@H]1CSSC[C@@H](C(=O)O)NC(=O)CNC(=O)[C@H]([C@@H](C)O)NC(=O)[C@H](CCSC)NC(=O)[C@H](CCCCN)NC1=O)[C@@H](C)O)C(C)C)C(C)C` [GILDSFKDVAKGVATHLLNMAKCKMTGC] showed an MIC [1] of at least 100 µM.

Compound `CC[C@H](C)[C@H](NC(=O)[C@H](Cc1cnc[nH]1)NC(=O)[C@H](CCCCN)NC(=O)CNC(=O)[C@H](C)NC(=O)[C@@H](NC(=O)[C@H](CCCCN)NC(=O)[C@H](CC(C)C)NC(=O)[C@@H](NC(=O)CNC(=O)[C@H](CCCN=C(N)N)NC(=O)[C@H](Cc1ccccc1)NC(=O)[C@H](CC(C)C)NC(=O)[C@H](CO)NC(=O)[C@H](CCSC)NC(=O)[C@H](CC(C)C)NC(=O)CN)C(C)C)[C@@H](C)O)C(=O)N[C@@H](Cc1ccccc1)C(=O)N[C@@H](CCCCN)C(=O)N[C@@H](CC(N)=O)C(=O)N[C@H](C(=O)NCC(=O)NCC(=O)N[C@@H](CO)C(=O)N[C@@H](CC(C)C)C(=O)N[C@@H](CC(C)C)C(=O)N[C@@H](CC(=O)O)C(=O)N[C@@H](CCC(N)=O)C(=O)N[C@@H](C)C(=O)N[C@@H](CCCCN)C(=O)N[C@H]1CSSC[C@@H](C(=O)O)NC(=O)[C@H](CCC(=O)O)NC(=O)CNC(=O)[C@H]([C@@H](C)O)NC(=O)[C@H]([C@@H](C)CC)NC(=O)[C@H](CCCCN)NC1=O)C(C)C` [GLMSLFRGVLKTAGKHIFKNVGGSLLDQAKCKITGEC] has an MIC [2] of at least 100 µM, an MIC [3] of 6 µM (≈ 23.5 µg/mL) and an MIC [4] of 3 µM (≈ 11.8 µg/mL). The MIC [5] was 6 µM (≈ 23.5 µg/mL), the MIC [6] was 3 µM (≈ 11.8 µg/mL) and the MIC [7] was 25 µM (≈ 98 µg/mL).

Compound `CC[C@H](C)[C@H](NC(=O)[C@H](CCCCN)NC(=O)[C@@H](NC(=O)[C@H](CO)NC(=O)[C@H](CC(N)=O)NC(=O)[C@H](Cc1c[nH]c2ccccc12)NC(=O)[C@H](CC(C)C)NC(=O)CN)[C@@H](C)CC)C(=O)N[C@@H](C)C(=O)NCC(=O)N[C@@H](CCCCN)C(=O)N[C@@H](CCCCN)C(=O)N[C@@H](CC(C)C)C(=O)N[C@@H](Cc1ccccc1)C(=O)N[C@H](C(=O)N[C@@H](CC(N)=O)C(=O)N[C@H](C(=O)N[C@@H](CC(C)C)C(=O)N[C@@H](CC(=O)O)C(=O)N[C@@H](CCCCN)C(=O)N[C@H](C(=O)N[C@@H](CCCN=C(N)N)C(=O)N[C@H]1CSSC[C@@H](C(=O)O)NC(=O)CNC(=O)CNC(=O)[C@H](C)NC(=O)[C@H](C(C)C)NC(=O)[C@H](CCCCN)NC1=O)[C@@H](C)CC)C(C)C)C(C)C` [GLWNSIKIAGKKLFVNVLDKIRCKVAGGC] has an MIC [8] of 128 µM (≈ 401 µg/mL), an MIC [2] of at least 100 µM and an MIC [9] of 16 µM (≈ 50.1 µg/mL). For the same compound, the MIC [10] was 2 µM (≈ 6.26 µg/mL), the MIC [11] was 8 µM (≈ 25 µg/mL) and the MIC [12] was 4 µM (≈ 12.5 µg/mL). For the same compound, the MIC [13] was 16 µM (≈ 50.1 µg/mL), the MIC [14] was 8 µM (≈ 25 µg/mL) and the MIC [15] was 12.5 µM (≈ 39.1 µg/mL). For the same compound, the MIC [16] was 1.6 µM and 4 µM, the MIC [17] was 2 µM (≈ 6.26 µg/mL) and the MIC [18] was 4 µM (≈ 12.5 µg/mL).

In the case of `CC(C)C[C@H](NC(=O)CNC(=O)[C@H](Cc1ccccc1)NC(=O)[C@H](Cc1ccccc1)NC(=O)[C@H](CC(C)C)NC(=O)CNC(=O)[C@H](Cc1ccccc1)NC(=O)[C@H](CC(C)C)NC(=O)[C@@H]1CCCN1C(=O)[C@H](CCCCN)NC(=O)[C@H](CCCCN)NC(=O)[C@H](CCCCN)NC(=O)[C@@H](N)CCCCN)C(=O)N[C@@H](Cc1ccccc1)C(=O)O` [KKKKPLFGLFFGLF], the MIC [19] was 14.1 µM (≈ 23.6 µg/mL), the MIC [20] was 4.23 µM (≈ 7.07 µg/mL) and the MIC [21] was at least 67.7 µM. It also gave an MIC [22] of 4.23 µM (≈ 7.07 µg/mL), an MIC [23] of at least 33.9 µM and an MIC [24] of 16.9 µM (≈ 28.3 µg/mL). It also gave an MIC [25] of at least 33.9 µM, an MIC [26] of at least 33.9 µM and an MIC [27] of 8.47 µM (≈ 14.1 µg/mL). The MIC [28] was 14.1 µM (≈ 23.6 µg/mL), the MIC [29] was 4.23 µM (≈ 7.07 µg/mL) and the MIC [30] was 4.23 µM (≈ 7.07 µg/mL). For the same compound, the MIC [31] was 8.47 µM (≈ 14.1 µg/mL), the MIC [32] was 24.5 µM (≈ 40.9 µg/mL) and the MIC [33] was 14.1 µM (≈ 23.6 µg/mL). The MIC [34] was at least 50 µM.

`CC[C@H](C)[C@H](NC(=O)[C@H](C)NC(=O)CNC(=O)[C@@H](NC(=O)[C@@H](NC(=O)[C@H](CCC(N)=O)NC(=O)[C@@H]1CCCN1C(=O)[C@@H](NC(=O)[C@H](C)NC(=O)CNC(=O)[C@@H](NC(=O)[C@@H](NC(=O)[C@H](Cc1cnc[nH]1)NC(=O)[C@@H]1CCCN1C(=O)[C@H](CC(C)C)NC(=O)[C@H](CC(C)C)NC(=O)[C@@H]1CCCN1C(=O)[C@@H](NC(=O)[C@H](CC(C)C)NC(=O)[C@H](Cc1ccccc1)NC(=O)CNC(=O)[C@H](Cc1ccccc1)NC(=O)[C@@H](N)CC(C)C)[C@@H](C)CC)[C@@H](C)CC)[C@@H](C)CC)[C@@H](C)CC)C(C)C)[C@@H](C)CC)C(=O)N[C@@H](CCCN=C(N)N)C(=O)O` [LFGFLIPLLPHIIGAIPQVIGAIR] gave an MIC [35] of 19.5 µM (≈ 50 µg/mL), an MIC [36] of 4.87 µM (≈ 12.5 µg/mL) and an MIC [37] of 19.5 µM (≈ 50 µg/mL). The MIC [38] was 2.43 µM (≈ 6.25 µg/mL), the MIC [39] was 19.5 µM (≈ 50 µg/mL) and the MIC [40] was 2.43 µM (≈ 6.25 µg/mL). The MIC [41] was 2.43 µM (≈ 6.25 µg/mL), the MIC [42] was 9.73 µM (≈ 25 µg/mL) and the MIC [43] was 9.73 µM (≈ 25 µg/mL).
